Laboratory results from the supplement of paper PMC10307832.

Assays:
Assay in all cases: relative viability (nuclei count vs DMSO), 5 days (fraction); higher = more cells survive
Afatinib + Pemetrexed = compound: CN(C)C/C=C/C(=O)Nc1cc2c(Nc3ccc(F)c(Cl)c3)ncnc2cc1O[C@H]1CCOC1 [Afatinib] + Nc1nc2[nH]cc(CCc3ccc(C(=O)N[C@@H](CCC(=O)O)C(=O)O)cc3)c2c(=O)[nH]1 [Pemetrexed] (partner 0.2 µM)
Method in brief: (§1)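 Each reported value is a median over duplicate plates. It expresses relative viability: treated-well nuclei count divided by vehicle-well nuclei count. Lung cancer cell lines in 1536-well plates were dosed by pin tool a day after seeding, alone with one drug or with a fixed anchor-drug dose plus five library-drug doses (not always all listed) in √10 steps, and nuclei were counted after 5 days.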

Afatinib + OSI-027 = compound: CN(C)C/C=C/C(=O)Nc1cc2c(Nc3ccc(F)c(Cl)c3)ncnc2cc1O[C@H]1CCOC1 [Afatinib] + COc1cccc2cc(-c3nc([C@H]4CC[C@H](C(=O)O)CC4)n4ncnc(N)c34)[nH]c12 [OSI-027] (partner 0.5 µM)
Method in brief: as §1

Afatinib + Foretinib = compound: CN(C)C/C=C/C(=O)Nc1cc2c(Nc3ccc(F)c(Cl)c3)ncnc2cc1O[C@H]1CCOC1 [Afatinib] + COc1cc2c(Oc3ccc(NC(=O)C4(C(=O)Nc5ccc(F)cc5)CC4)cc3F)ccnc2cc1OCCCN1CCOCC1 [Foretinib] (partner 0.25 µM)
Method in brief: as §1

Afatinib + AZD7762 = compound: CN(C)C/C=C/C(=O)Nc1cc2c(Nc3ccc(F)c(Cl)c3)ncnc2cc1O[C@H]1CCOC1 [Afatinib] + NC(=O)Nc1cc(-c2cccc(F)c2)sc1C(=O)N[C@H]1CCCNC1 [AZD7762] (partner 0.2 µM)
Method in brief: as §1

| Cell Line | relative viability (Afatinib + Pemetrexed; first compound 0.005 µM) | relative viability (Afatinib + Pemetrexed; first compound 0.01581 µM) | relative viability (Afatinib + Pemetrexed; first compound 0.05 µM) | relative viability (Afatinib + Pemetrexed; first compound 0.1581 µM) | relative viability (Afatinib + Pemetrexed; first compound 0.5 µM) | relative viability (Afatinib + OSI-027; first compound 0.005 µM) | relative viability (Afatinib + OSI-027; first compound 0.01581 µM) | relative viability (Afatinib + OSI-027; first compound 0.05 µM) | relative viability (Afatinib + OSI-027; first compound 0.1581 µM) | relative viability (Afatinib + OSI-027; first compound 0.5 µM) | relative viability (Afatinib + Foretinib; first compound 0.005 µM) | relative viability (Afatinib + Foretinib; first compound 0.01581 µM) | relative viability (Afatinib + Foretinib; first compound 0.05 µM) | relative viability (Afatinib + Foretinib; first compound 0.1581 µM) | relative viability (Afatinib + Foretinib; first compound 0.5 µM) | relative viability (Afatinib + AZD7762; first compound 0.005 µM) | relative viability (Afatinib + AZD7762; first compound 0.01581 µM) | relative viability (Afatinib + AZD7762; first compound 0.05 µM) | relative viability (Afatinib + AZD7762; first compound 0.1581 µM) | relative viability (Afatinib + AZD7762; first compound 0.5 µM) |
| --- | --- | --- | --- | --- | --- | --- | --- | --- | --- | --- | --- | --- | --- | --- | --- | --- | --- | --- | --- | --- |
| UMC-11 | 0.892 | 0.814 | 0.846 | 0.738 | 0.722 | 0.469 | 0.427 | 0.462 | 0.46 | 0.456 | 0.992 | 1.03 | 1.08 | 1.02 | 0.996 |  |  |  |  |  |
| NCI-H1650 | 0.31 | 0.291 | 0.344 | 0.284 | 0.3 | 0.476 |  | 0.557 | 0.439 | 0.397 | 0.871 |  | 0.9 | 0.671 | 0.774 |  |  |  |  |  |
| EBC-1 |  |  |  |  |  |  |  |  |  |  | 0.105 | 0.0995 | 0.0925 | 0.109 | 0.0966 |  |  |  |  |  |
| SK-LU-1 | 0.967 | 0.816 | 1.03 | 0.948 | 0.969 | 0.389 | 0.415 | 0.327 | 0.318 | 0.352 | 0.856 | 0.833 | 0.878 | 0.764 | 0.845 |  |  |  |  |  |
| SK-MES-1 | 0.386 | 0.707 | 0.472 | 0.438 | 0.434 | 0.36 | 0.405 | 0.307 | 0.265 | 0.26 | 0.905 | 0.552 | 0.596 | 0.372 | 0.448 |  |  |  |  |  |
| NCI-H1792 | 0.781 | 0.647 | 0.751 | 0.824 | 0.522 | 0.662 | 0.762 | 0.707 | 0.672 | 0.735 |  |  |  |  |  | 0.615 | 0.534 | 0.703 | 0.643 | 0.466 |
| SW 1573 | 0.747 | 0.852 | 0.86 | 0.769 | 0.861 | 0.607 | 0.516 | 0.644 | 0.541 | 0.618 | 0.999 | 0.924 | 0.898 | 0.861 | 0.877 |  |  |  |  |  |
| A549 |  |  |  |  |  |  |  |  |  |  | 0.826 | 0.835 | 0.781 | 0.806 | 0.861 |  |  |  |  |  |
| NCI-H1703 |  |  |  |  |  |  |  |  |  |  | 0.319 |  | 0.347 | 0.361 | 0.329 | 0.13 | 0.141 | 0.119 | 0.121 | 0.109 |
| NCI-H520 | 0.771 | 0.717 | 0.749 | 0.725 | 0.668 | 0.357 | 0.198 | 0.201 | 0.261 | 0.234 | 0.83 | 0.656 | 0.698 | 0.812 | 0.744 |  |  |  |  |  |
| NCI-H1563 | 0.782 | 0.719 | 0.921 | 0.777 | 0.822 | 0.729 | 0.739 | 0.737 | 0.709 | 0.746 | 0.891 | 0.967 | 0.933 | 0.836 | 0.87 |  |  |  |  |  |
| NCI-H2009 | 1.04 | 1.01 | 0.977 | 1.03 | 1.01 | 0.635 | 0.633 | 0.714 | 0.516 | 0.459 | 1.22 | 1.19 | 1.31 | 1.21 | 1.33 |  |  |  |  |  |
